Test results published in PMC6744936, “Genome-wide identification, characterization and expression pattern analysis of APYRASE family members in response to abiotic and biotic stresses in wheat” (PeerJ, 2019).

System: T1, TaAPY3-1
T1 construct: pET22a, E. coli BL21; genome set A copy
Test: phosphate release (Phosphate Assay Kit)
Assay type: biochemical, Triticum aestivum
Details: 37 °C, pH 5.5, 8 mM Ca2+

## Nc1ncnc2c1ncn2[C@@H]1O[C@H](COP(=O)(O)OP(=O)(O)OP(=O)(O)O)[C@@H](O)[C@H]1O [ATP]
  Km: 8.7 mM
